Reference: ChEMBL document CHEMBL1201862, “PubChem BioAssay data set” (2004)
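48-hour exposure; five concentrations; linearly interpolated endpoints. GI50: concentration for 50% inhibition of growth.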 Calls of active or inactive are those of the source. Rule as the data show it: active = GI50 up to about 1.1 µM and inactive = higher.

Key:
Test in all cases: NCI anticancer screen, dose series, 48 h
HCT-15 = system: HCT-15
SF-295 = system: SF-295
TK-10 = system: TK-10
T47D = system: T47D
PC-3 = system: PC-3
NCI-H522 = system: NCI-H522
UO-31 = system: UO-31
MDA-MB-231 = system: MDA-MB-231
HL-60 = system: HL-60
UACC-257 = system: UACC-257
SN12C = system: SN12C
NCI-H23 = system: NCI-H23
SK-OV-3 = system: SK-OV-3
SF-268 = system: SF-268
SR = system: SR
HCT-116 = system: HCT-116
SNB-75 = system: SNB-75
NCI-H460 = system: NCI-H460
OVCAR-8 = system: OVCAR-8
CCRF-CEM = system: CCRF-CEM
MOLT-4 = system: MOLT-4
HT-29 = system: HT-29
A498 = system: A498
LOX IMVI = system: LOX IMVI
MDA-N = system: MDA-N
MDA-MB-435 = system: MDA-MB-435
SK-MEL-2 = system: SK-MEL-2
ACHN = system: ACHN
SK-MEL-28 = system: SK-MEL-28
BT-549 = system: BT-549
M14 = system: M14
OVCAR-5 = system: OVCAR-5
COLO 205 = system: COLO 205
K562 = system: K562
HOP-92 = system: HOP-92
SNB-19 = system: SNB-19
UACC-62 = system: UACC-62
SW-620 = system: SW-620
OVCAR-3 = system: OVCAR-3
CAKI-1 = system: CAKI-1
RPMI-8226 = system: RPMI-8226
U-251 = system: U-251
NCI/ADR-RES = system: NCI/ADR-RES
IGROV-1 = system: IGROV-1
MCF7 = system: MCF7
SK-MEL-5 = system: SK-MEL-5
DU-145 = system: DU-145
OVCAR-4 = system: OVCAR-4
786-0 = system: 786-0
KM12 = system: KM12
EKVX = system: EKVX
NCI-H226 = system: NCI-H226
Hs-578T = system: Hs-578T
Malme-3M = system: Malme-3M
SF-539 = system: SF-539
RXF 393 = system: RXF 393
A549 = system: A549
HOP-62 = system: HOP-62

For `CC(CO)(CO)/N=C/c1cc(I)cc(I)c1O`, the GI50 (HCT-15) was 9.33 µM, the GI50 (SF-295) was 15.8 µM (inactive) and the GI50 (TK-10) was 26 µM (inactive). The GI50 (T47D) was 23.1 µM (inactive), the GI50 (PC-3) was 14.2 µM (inactive) and the GI50 (NCI-H522) was 19.1 µM (inactive). The GI50 (UO-31) was 12 µM (inactive), the GI50 (MDA-MB-231) was 18.7 µM (inactive) and the GI50 (HL-60) was 11.2 µM (inactive). The GI50 (UACC-257) was 20.9 µM (inactive), the GI50 (SN12C) was 13.3 µM (inactive) and the GI50 (NCI-H23) was 21.8 µM (inactive). For the same molecule, the GI50 (SK-OV-3) was 13.6 µM (inactive), the GI50 (SF-268) was 5.62 µM (inactive) and the GI50 (SR) was 8.53 µM (inactive). The GI50 (HCT-116) was 14.8 µM (inactive), the GI50 (SNB-75) was 12.9 µM (inactive) and the GI50 (NCI-H460) was 22.2 µM (inactive). For the same molecule, the GI50 (OVCAR-8) was 15.5 µM (inactive), the GI50 (CCRF-CEM) was 9.98 µM (inactive) and the GI50 (MOLT-4) was 11.5 µM (inactive). For the same molecule, the GI50 (HT-29) was 21.4 µM (inactive), the GI50 (A498) was 26.5 µM (inactive) and the GI50 (LOX IMVI) was 10.3 µM (inactive). The GI50 (MDA-N) was 19.7 µM (inactive), the GI50 (MDA-MB-435) was 13.5 µM (inactive) and the GI50 (SK-MEL-2) was 12.2 µM (inactive). For the same molecule, the GI50 (ACHN) was 25 µM (inactive), the GI50 (SK-MEL-28) was 16.6 µM (inactive) and the GI50 (BT-549) was 14 µM (inactive). The GI50 (M14) was 14.1 µM (inactive), the GI50 (OVCAR-5) was 22.3 µM (inactive) and the GI50 (COLO 205) was 17.8 µM (inactive). The GI50 (K562) was 27.1 µM (inactive), the GI50 (HOP-92) was 14 µM (inactive) and the GI50 (SNB-19) was 20.3 µM (inactive). The GI50 (UACC-62) was 16 µM (inactive), the GI50 (SW-620) was 22 µM (inactive) and the GI50 (OVCAR-3) was 9.79 µM (inactive). For the same molecule, the GI50 (CAKI-1) was 22.2 µM (inactive), the GI50 (RPMI-8226) was 21.3 µM (inactive) and the GI50 (U-251) was 12.8 µM (inactive). The GI50 (NCI/ADR-RES) was 14.2 µM (inactive), the GI50 (IGROV-1) was 9.4 µM (inactive) and the GI50 (MCF7) was 19.5 µM (inactive). The GI50 (SK-MEL-5) was 13.8 µM (inactive), the GI50 (DU-145) was 11.6 µM (inactive) and the GI50 (OVCAR-4) was 8.65 µM (inactive). For the same molecule, the GI50 (786-0) was 13.6 µM (inactive), the GI50 (KM12) was 14.5 µM (inactive) and the GI50 (EKVX) was 19.5 µM (inactive). The GI50 (NCI-H226) was 16.4 µM (inactive), the GI50 (Hs-578T) was 23.6 µM (inactive) and the GI50 (Malme-3M) was 13.1 µM (inactive). The GI50 (SF-539) was 14.5 µM (inactive), the GI50 (RXF 393) was 10.9 µM (inactive) and the GI50 (A549) was 54.8 µM (inactive). The GI50 (HOP-62) was 11.2 µM (inactive).
